# In PMC4207540 (Journal of Medicinal Chemistry, 2014):
# What was measured:
# BXD-4687 = format: cell-based, human
# BXD-3752 = format: cell-based, human
# WI-38 fibroblast cells = assay: Cytotoxicity assay; format: cell-based
# IDH1(R132H) = IDH1(R132H) (Homo sapiens, UniProt O75874, R132H); conditions: for fold less active than compound 2 against IDH1(R132H): relative to compound 2
# WT IDH1 [1] = biological target: T1, WT IDH1 (Homo sapiens, UniProt O75874)
# [2] = system: breast cancer and leukemia cells; conditions: cited from earlier work
# HT1080 cells = assay: D2HG production inhibition in HT1080 cells; conditions: Homo sapiens, HT-1080, 48 h, read-out: IC50 for inhibition of D2HG
# WT IDH1 [3] = biological target: T1, WT IDH1; assay: biochemical
# Chain of IDH1(R132H) (O75874 whole entry R132H): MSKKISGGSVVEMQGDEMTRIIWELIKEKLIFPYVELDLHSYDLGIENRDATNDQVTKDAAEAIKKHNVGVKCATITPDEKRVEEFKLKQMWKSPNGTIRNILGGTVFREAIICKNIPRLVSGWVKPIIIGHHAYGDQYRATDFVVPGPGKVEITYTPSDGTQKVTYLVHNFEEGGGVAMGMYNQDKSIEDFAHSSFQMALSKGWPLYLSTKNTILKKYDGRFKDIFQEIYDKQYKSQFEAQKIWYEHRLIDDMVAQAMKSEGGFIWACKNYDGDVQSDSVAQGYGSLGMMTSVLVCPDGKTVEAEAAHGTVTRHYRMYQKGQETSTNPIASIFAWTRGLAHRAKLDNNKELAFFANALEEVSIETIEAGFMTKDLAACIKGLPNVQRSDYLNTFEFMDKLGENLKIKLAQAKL
# T1 sequence (O75874 whole entry): as the sequence (O75874 whole entry R132H) above, with H132R counted along it
structure (smiles),measurement,setting,value
Cc1ccccc1C(C(=O)NC1CCCCC1)N(C(=O)Cn1ccnc1C)c1cccc(F)c1 (stereo not drawn) [Compound 1],"activity against BXD-4687, in words",BXD-4687,no activity
same,"activity against BXD-3752, in words",BXD-3752,no activity
same,"activity against WI-38, in words",WI-38 fibroblast cells,no activity
Cc1cc(Cc2ccccc2)n(O)c(=O)c1 [Compound 2],EC50,"WI-38 fibroblast cells; Homo sapiens, WI-38, 48 h, read-out: EC50 against WI-38",> 50 µM
O=c1ccc(-c2ccccc2)cn1O [Compound 5],"inhibitory activity against IDH1(R132H), in words",IDH1(R132H),very weak activity
O=c1cccc(Cc2ccccc2)n1O [Compound 7],"inhibitory activity against WT IDH1, in words",WT IDH1 [1],do not inhibit the enzyme
"Cc1cc(C2CCCCC2)n(O)c(=O)c1 [Compound 9, Ciclopirox, reference compound]",antiproliferative activity,[2],low micromolar
same,"inhibitory activity against IDH1(R132H), in words",IDH1(R132H),inactive
O=c1ccc(CCc2ccccc2)cn1O [Compound 10],"inhibitory activity against IDH1(R132H), in words",IDH1(R132H),lose the inhibitory activity
O=c1ccc(CCCc2ccccc2)cn1O [Compound 11],"inhibitory activity against IDH1(R132H), in words",IDH1(R132H),lose the inhibitory activity
O=c1cccc(-c2ccccc2)n1O [Compound 15],"inhibitory activity against IDH1(R132H), in words",IDH1(R132H),inactive
CC(c1ccccc1)c1cccc(=O)n1O (stereo not drawn) [Compound 16],"inhibitory activity against IDH1(R132H), in words",IDH1(R132H),inactive
Cc1cc(COc2ccccc2)n(O)c(=O)c1 [Compound 19],fold less active than compound 2 against IDH1(R132H),IDH1(R132H),~4 fold
Cc1cc(C)n(O)c(=O)c1 [Compound 20],"inhibitory activity against IDH1(R132H), in words",IDH1(R132H),inactive
O=c1ccc(Cc2ccccc2)c[nH]1 [Compound 21],"inhibitory activity against IDH1(R132H), in words",IDH1(R132H),lack of activity
O=c1ccn(O)c(=O)n1Cc1ccccc1 [Compound 25],"inhibitory activity against IDH1(R132H), in words",IDH1(R132H),lack of activity
O=c1n(O)ccn1Cc1ccccc1 [Compound 26],"inhibitory activity against IDH1(R132H), in words",IDH1(R132H),lack of activity
Cc1cc(Cc2ccccc2)n(N)c(=O)c1 [Compound 27],fold less active than compound 2 against IDH1(R132H),IDH1(R132H),20 fold
Cc1cc(Cc2ccccc2)oc(=O)c1 [Compound 28],"inhibitory activity against IDH1(R132H), in words",IDH1(R132H),inactive
Cc1cc(Cc2ccccc2)oc(=S)c1 [Compound 29],"inhibitory activity against IDH1(R132H), in words",IDH1(R132H),inactive
Cc1ccn(O)c(=O)c1Cc1ccccc1 [Compound 30],fold less active than compound 2 against IDH1(R132H),IDH1(R132H),50 fold
CC(C)c1cc(Cc2ccccc2)n(O)c(=O)c1 [Compound 33],"inhibitory activity against WT IDH1, in words",WT IDH1 [1],do not inhibit the enzyme
same,IC50,HT1080 cells,> 30 µM
O=c1cc(O)cc(Cc2ccccc2)n1O [Compound 34],"inhibitory activity against WT IDH1, in words",WT IDH1 [1],do not inhibit the enzyme
same,IC50,HT1080 cells,9.7 ± 1.8 µM
same,Ki,WT IDH1 [3],> 30 µM
COc1cccc(Cc2cc(C)cc(=O)n2O)c1 [Compound 39],"inhibitory activity against WT IDH1, in words",WT IDH1 [1],do not inhibit the enzyme
Cc1cc(Cc2cccc(O)c2)n(O)c(=O)c1 [Compound 40],"inhibitory activity against WT IDH1, in words",WT IDH1 [1],do not inhibit the enzyme
COc1ccccc1Cc1cc(C)cc(=O)n1O [Compound 41],fold less active than compound 2 against IDH1(R132H),IDH1(R132H),~2 fold
Cc1cc(Cc2ccccc2O)n(O)c(=O)c1 [Compound 42],fold less active than compound 2 against IDH1(R132H),IDH1(R132H),~2 fold
Cc1cc(Cc2cccc(F)c2)n(O)c(=O)c1 [Compound 43],fold less active than compound 2 against IDH1(R132H),IDH1(R132H),~10 fold
Cc1cc(Cc2c(F)c(F)c(F)c(F)c2F)n(O)c(=O)c1 [Compound 44],fold less active than compound 2 against IDH1(R132H),IDH1(R132H),~10 fold
COc1ccc(-c2ccc(Cc3cc(C)cc(=O)n3O)cc2)cc1 [Compound 58],"selectivity for BT-142 over glioma cells without IDH1 mutation (BXD-4687, -3752)",BT-142 glioma cells,> 10 fold
